In patent US20250381157A1, “ANTIMICROBIAL COMPOUNDS” (priority 2022, published 2025):
“And” between values parts separate entries of the source, which are not always exact repeats. Identical values can stand only once. Like-named read-outs stand apart in the source and are kept apart here.

Tested on: Enterotoxigenic Escherichia coli (ETEC) (ATCC ® 35401 ™, H10407)
Type: in vivo, mouse
Conditions: for Body weights (Final Day) (Mean ± SD) / Log10 CFU/g [Mean ± SD] Blood / Log10 CFU/g [Mean ± SD] Kidneys / Log10 CFU/g [Mean ± SD] Liver / Log10 CFU/g [Mean ± SD] Spleen / Kidney -Raw data on Vancomycin (32 μg/ml) plates / Liver-Raw data on Vancomycin (32 μg/ml) plates / Spleen -Raw data on Vancomycin (32 μg/ml) plates / Blood -Raw data on Vancomycin (32 μg/ml) plates - on day 7 PI: PO, twice daily(q12h), 9 days; for effect on bacterial translocation: presence of cyclophosphamide, FIG. 4; for Clinical observation (Mean Score) Hunched Posture / Clinical observation (Mean Score) Lethergy / Clinical observation (Mean Score) Rough coat / Clinical observation (Mean Score) hyperpnea: 0=absent 1=present; for Kidney -Raw data on Vancomycin (32 μg/ml) plates / Liver-Raw data on Vancomycin (32 μg/ml) plates / Spleen -Raw data on Vancomycin (32 μg/ml) plates / Blood -Raw data on Vancomycin (32 μg/ml) plates - on day 7 PI: individual animals
Experimental: FIG. 3: Schematic protocol for neutropenia mouse model
A schematic of the experimental model is depicted in FIG. 3.
That experiment was performed in the presence of cyclophosphamide, which is known to cause febrile neutropenia due to translocation of bacteria to vital organs.

[1] = Day (0), 5 mg/kg PO q12h 9 days
[2] = Day (0), 50 mg/kg PO q12h 9 days
[3] = Day (1), 5 mg/kg PO q12h 9 days
[4] = Day (1), 50 mg/kg PO q12h 9 days
[5] = Day (2), 5 mg/kg PO q12h 9 days
[6] = Day (2), 50 mg/kg PO q12h 9 days
[7] = Day (3), 5 mg/kg PO q12h 9 days
[8] = Day (3), 50 mg/kg PO q12h 9 days
[9] = Day (4), 5 mg/kg PO q12h 9 days
[10] = Day (4), 50 mg/kg PO q12h 9 days
[11] = Day (5), 5 mg/kg PO q12h 9 days
[12] = Day (5), 50 mg/kg PO q12h 9 days
[13] = Day (6), 5 mg/kg PO q12h 9 days
[14] = Day (6), 50 mg/kg PO q12h 9 days
[15] = Day (7), 5 mg/kg PO q12h 9 days
[16] = Day (7), 50 mg/kg PO q12h 9 days
[17] = Day (−1), 5 mg/kg PO q12h 9 days
[18] = Day (−1), 50 mg/kg PO q12h 9 days
[19] = Day (−2), 5 mg/kg PO q12h 9 days
[20] = Day (−2), 50 mg/kg PO q12h 9 days

C#CCOCC(=O)Nc1ccc(C(=O)Nc2ccccc2N)cc1 [Compound 1, N-(2-aminophenyl)-4-{2-[(prop-2-yn-1-yl)oxy]acetamido}benzamide]
Body weights (Final Day) (Mean ± SD) (5 mg/kg): 25.2 ± 1.69 | Log10 CFU/g [Mean ± SD] Blood (5 mg/kg): 1.9 ± 0 Log10 CFU/g | Log10 CFU/g [Mean ± SD] Kidneys (5 mg/kg): 2.83 ± 0.29^ns Log10 CFU/g | Log10 CFU/g [Mean ± SD] Liver (5 mg/kg): 2.58 ± 0.32 Log10 CFU/g | Log10 CFU/g [Mean ± SD] Spleen (5 mg/kg): 3.05 ± 0.3^ns Log10 CFU/g | effect on bacterial translocation (5 mg/kg): little to no effect | Body weights (Final Day) (Mean ± SD) (50 mg/kg): 26.1 ± 1.20 | Log10 CFU/g [Mean ± SD] Blood (50 mg/kg): BLOQ | Log10 CFU/g [Mean ± SD] Kidneys (50 mg/kg): BLOQ | Log10 CFU/g [Mean ± SD] Liver (50 mg/kg): BLOQ | Log10 CFU/g [Mean ± SD] Spleen (50 mg/kg): BLOQ | effect on bacterial translocation (50 mg/kg): inhibits it completely | Clinical observation (Mean Score) Hunched Posture [1]: 0.0 | Clinical observation (Mean Score) Lethergy [1]: 0.0 | Clinical observation (Mean Score) Rough coat [1]: 0.0 | Clinical observation (Mean Score) hyperpnea [1]: 0.0 | Clinical observation (Mean Score) Hunched Posture [2]: 0.0 | Clinical observation (Mean Score) Lethergy [2]: 0.0 | Clinical observation (Mean Score) Rough coat [2]: 0.0 | Clinical observation (Mean Score) hyperpnea [2]: 0.0 | Clinical observation (Mean Score) Hunched Posture [3]: 0.0 | Clinical observation (Mean Score) Lethergy [3]: 0.0 | Clinical observation (Mean Score) Rough coat [3]: 0.0 | Clinical observation (Mean Score) hyperpnea [3]: 0.0 | Clinical observation (Mean Score) Hunched Posture [4]: 0.0 | Clinical observation (Mean Score) Lethergy [4]: 0.0 | Clinical observation (Mean Score) Rough coat [4]: 0.0 | Clinical observation (Mean Score) hyperpnea [4]: 0.0 | Clinical observation (Mean Score) Hunched Posture [5]: 0.0 | Clinical observation (Mean Score) Lethergy [5]: 0.0 | Clinical observation (Mean Score) Rough coat [5]: 0.0 | Clinical observation (Mean Score) hyperpnea [5]: 0.0 | Clinical observation (Mean Score) Hunched Posture [6]: 0.0 | Clinical observation (Mean Score) Lethergy [6]: 0.0 | Clinical observation (Mean Score) Rough coat [6]: 0.0 | Clinical observation (Mean Score) hyperpnea [6]: 0.0 | Clinical observation (Mean Score) Hunched Posture [7]: 0.0 | Clinical observation (Mean Score) Lethergy [7]: 0.0 | Clinical observation (Mean Score) Rough coat [7]: 0.0 | Clinical observation (Mean Score) hyperpnea [7]: 0.0 | Clinical observation (Mean Score) Hunched Posture [8]: 0.0 | Clinical observation (Mean Score) Lethergy [8]: 0.0 | Clinical observation (Mean Score) Rough coat [8]: 0.0 | Clinical observation (Mean Score) hyperpnea [8]: 0.0 | Clinical observation (Mean Score) Hunched Posture [9]: 0.0 | Clinical observation (Mean Score) Lethergy [9]: 0.0 | Clinical observation (Mean Score) Rough coat [9]: 0.0 | Clinical observation (Mean Score) hyperpnea [9]: 0.0 | Clinical observation (Mean Score) Hunched Posture [10]: 0.0 | Clinical observation (Mean Score) Lethergy [10]: 0.0 | Clinical observation (Mean Score) Rough coat [10]: 0.0 | Clinical observation (Mean Score) hyperpnea [10]: 0.0 | Clinical observation (Mean Score) Hunched Posture [11]: 0.0 | Clinical observation (Mean Score) Lethergy [11]: 0.1 | Clinical observation (Mean Score) Rough coat [11]: 0.5 | Clinical observation (Mean Score) hyperpnea [11]: 0.0 | Clinical observation (Mean Score) Hunched Posture [12]: 0.0 | Clinical observation (Mean Score) Lethergy [12]: 0.0 | Clinical observation (Mean Score) Rough coat [12]: 0.0 | Clinical observation (Mean Score) hyperpnea [12]: 0.0 | Clinical observation (Mean Score) Hunched Posture [13]: 0.0 | Clinical observation (Mean Score) Lethergy [13]: 0.4 | Clinical observation (Mean Score) Rough coat [13]: 0.7 | Clinical observation (Mean Score) hyperpnea [13]: 0.0 | Clinical observation (Mean Score) Hunched Posture [14]: 0.0 | Clinical observation (Mean Score) Lethergy [14]: 0.0 | Clinical observation (Mean Score) Rough coat [14]: 0.4 | Clinical observation (Mean Score) hyperpnea [14]: 0.0 | Clinical observation (Mean Score) Hunched Posture [15]: 0.0 | Clinical observation (Mean Score) Lethergy [15]: 0.5 | Clinical observation (Mean Score) Rough coat [15]: 1.0 | Clinical observation (Mean Score) hyperpnea [15]: 0.0 | Clinical observation (Mean Score) Hunched Posture [16]: 0.0 | Clinical observation (Mean Score) Lethergy [16]: 0.0 | Clinical observation (Mean Score) Rough coat [16]: 0.4 | Clinical observation (Mean Score) hyperpnea [16]: 0.0 | Clinical observation (Mean Score) Hunched Posture [17]: 0.0 | Clinical observation (Mean Score) Lethergy [17]: 0.0 | Clinical observation (Mean Score) Rough coat [17]: 0.0 | Clinical observation (Mean Score) hyperpnea [17]: 0.0 | Clinical observation (Mean Score) Hunched Posture [18]: 0.0 | Clinical observation (Mean Score) Lethergy [18]: 0.0 | Clinical observation (Mean Score) Rough coat [18]: 0.0 | Clinical observation (Mean Score) hyperpnea [18]: 0.0 | Clinical observation (Mean Score) Hunched Posture [19]: 0.0 | Clinical observation (Mean Score) Lethergy [19]: 0.0 | Clinical observation (Mean Score) Rough coat [19]: 0.0 | Clinical observation (Mean Score) hyperpnea [19]: 0.0 | Clinical observation (Mean Score) Hunched Posture [20]: 0.0 | Clinical observation (Mean Score) Lethergy [20]: 0.0 | Clinical observation (Mean Score) hyperpnea [20]: 0.0 | Bacteria in treated animals (day 7, compound 1 at 50 mg/kg): BLOQ | antibacterial effect in liver and blood compared to vehicle controls (day 7, p<0.05): significant dose dependent antibacterial effect | Kidney -Raw data on Vancomycin (32 μg/ml) plates (5 mg/kg): 2.73 Log10 CFU/g and 3.23 Log10 CFU/g and 2.66 Log10 CFU/g and 2.94 Log10 CFU/g and 3.34 Log10 CFU/g and 2.68 Log10 CFU/g and 2.59 Log10 CFU/g and 2.54 Log10 CFU/g and 2.75 Log10 CFU/g and BLOQ | Liver-Raw data on Vancomycin (32 μg/ml) plates (5 mg/kg): 2.67 Log10 CFU/g and 2.41 Log10 CFU/g (2×) and 3.42 Log10 CFU/g and 2.33 Log10 CFU/g and 2.39 Log10 CFU/g (2×) and 2.53 Log10 CFU/g and 2.61 Log10 CFU/g and 2.57 Log10 CFU/g | Spleen -Raw data on Vancomycin (32 μg/ml) plates (5 mg/kg): 3.04 Log10 CFU/g and 3.00 Log10 CFU/g and 3.51 Log10 CFU/g and 2.62 Log10 CFU/g and BLOQ (4×) and 2.91 Log10 CFU/g and 3.17 Log10 CFU/g | Kidney -Raw data on Vancomycin (32 μg/ml) plates (50 mg/kg): BLOQ | Liver-Raw data on Vancomycin (32 μg/ml) plates (50 mg/kg): BLOQ | Spleen -Raw data on Vancomycin (32 μg/ml) plates (50 mg/kg): BLOQ | Blood -Raw data on Vancomycin (32 μg/ml) plates - on day 7 PI (5 mg/kg): 1.90 Log10 CFU/g | Blood -Raw data on Vancomycin (32 μg/ml) plates - on day 7 PI (5 mg/kg, 5 mg/kg): BLOQ | Blood -Raw data on Vancomycin (32 μg/ml) plates - on day 7 PI (50 mg/kg): BLOQ | clinical condition of animals (treated groups): apparently normal
